From patent publication US7588788B2, “Immune modulation and anti-allergy activities of Zingiber zerumbet” (Wholesome Life Science Co., Ltd., priority 2004, dated 2009)

Columns and labels:
[1] = test system: Th1/Th2 immune responses; test: Active compound identification by in vitro bioactive screening of purification fractions; type: cell-based; settings: compound identified from active fractions
[2] = test system: Rat Basophilic Leukemia-1 (RBL-1) cell, LTC4 secretion; test: LTC4 released by A23187 stimulated leukemia cells (ELISA); type: cell-based; settings: compound identified from the most active fraction
Protocol: Cell culture and drug treatment: Rat Basophilic Leukemia-1 (RBL-1) was purchased from Food Industry Research and Development Institute (CCRC 60198, ATCC CRL-1378), and cultured in MEM-alpha medium (Gibco, 12000). All trans-retinoic acid (1 μg/ml) was added to a 3.5 cm diameter well (6-well plate) at 2×10^6 cells/2 ml/well. Plates were then incubated at 37° C. with 5% CO2 in air for 16 hr. Various volumes of ZZ samples were added to the wells to make the appropriate final concentrations (0, 0.5, 5, 50 μg/ml) and incubated for 2 more hours. A23187 (calcium ionophore) was added to each well to reach the final concentration of 10 μM to stimulate RBL-1 cells to release LTC4/cLTs for 15 min. The mediums in the wells were centrifuged at 5000 rpm for 10 min to obtain the supernatant for ELISA assay.
LTC4/cLTs ELISA assay: The supernatants of the cell cultures were diluted into appropriate concentrations before the EIA analysis for LTC4/cLTs. Analysis was performed according to the procedures provided by the manufacturer.

Row | Structure (SMILES) | increase of the IFN-γ/IL-4 gene expression ratio [1] | effect of suppressing LTC4 [2]
1 | C/C1=C\CC(C)(C)/C=C/C(=O)/C(C)=C/CC1 [Zerumbone, zerumbone] | active ingredient | 
2 | COc1c(-c2ccc(O)cc2)oc2cc(O)cc(O)c2c1=O [5,7-dihydroxy-2-(4-hydroxy-phenyl)-3-methoxy-chromen-4-one] |  | active compound
